The results in this text go back to article PMC3536784, “Structural Characterization of Pandoraea pnomenusa B-356 Biphenyl Dioxygenase Reveals Features of Potent Polychlorinated Biphenyl-Degrading Enzymes” (PLoS ONE, 2013).

Assay [1] has as its target T1, BPDOB356 (biphenyl dioxygenase, oxygenase component BphAE) (Comamonas testosteroni, UniProt Q46372).
T1 construct: gene bphA; heterologously produced, purified anaerobically; heterohexamer (alpha-beta)3; Rieske [2Fe-2S] and mononuclear Fe(II); 18 N-terminal alpha residues disordered; with Biphenyl dioxygenase subunit beta
The assay can be described thus: X-ray crystal structure of complex, […] Å. Type of assay: binding. Conditions: biphenyl powder soaked into crystals 24 h, anaerobic; MES pH 6.0; alpha-subunit active site near Fe(II).

In assay [2] the target is T2, BPDOB356 (biphenyl dioxygenase, oxygenase component BphAE) (Comamonas testosteroni, UniProt Q46372, M231A).
T2 construct: gene bphA
T2 sequence (Q46372 whole entry M231A): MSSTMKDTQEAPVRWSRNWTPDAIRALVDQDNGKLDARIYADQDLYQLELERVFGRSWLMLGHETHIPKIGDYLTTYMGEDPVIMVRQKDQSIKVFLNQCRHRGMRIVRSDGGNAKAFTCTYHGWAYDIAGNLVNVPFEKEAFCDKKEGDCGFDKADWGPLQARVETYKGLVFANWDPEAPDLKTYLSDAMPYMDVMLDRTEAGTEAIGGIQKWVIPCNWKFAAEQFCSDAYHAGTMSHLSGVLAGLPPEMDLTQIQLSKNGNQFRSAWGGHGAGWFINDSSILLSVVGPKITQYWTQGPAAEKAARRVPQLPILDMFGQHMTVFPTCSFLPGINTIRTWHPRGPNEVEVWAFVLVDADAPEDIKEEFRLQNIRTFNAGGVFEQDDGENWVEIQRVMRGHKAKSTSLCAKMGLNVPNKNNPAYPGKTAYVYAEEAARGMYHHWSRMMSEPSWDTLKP
T2 sequence (Q46373 whole entry partner): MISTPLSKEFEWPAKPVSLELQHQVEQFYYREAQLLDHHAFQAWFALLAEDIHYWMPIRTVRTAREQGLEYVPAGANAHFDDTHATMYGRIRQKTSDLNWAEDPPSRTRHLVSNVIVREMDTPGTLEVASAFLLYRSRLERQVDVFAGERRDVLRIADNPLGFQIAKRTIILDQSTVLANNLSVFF
In words: O2 consumption, Clark-type oxygen electrode. As to conditions: read-out: 2,2′-Dichlorobiphenyl / Km /; apparent; air-saturated 50 mM MES pH 6.0; NADH 123 µM; BphG B356 and BphF LB400 as electron transfer partners; Fe(II) added; partly uncoupled.

For assay [3], the target named is T3, BPDOB356 (biphenyl dioxygenase, oxygenase component BphAE) (Comamonas testosteroni, UniProt Q46372, M231T).
T3 construct: gene bphA
T3 sequence (Q46372 whole entry M231T): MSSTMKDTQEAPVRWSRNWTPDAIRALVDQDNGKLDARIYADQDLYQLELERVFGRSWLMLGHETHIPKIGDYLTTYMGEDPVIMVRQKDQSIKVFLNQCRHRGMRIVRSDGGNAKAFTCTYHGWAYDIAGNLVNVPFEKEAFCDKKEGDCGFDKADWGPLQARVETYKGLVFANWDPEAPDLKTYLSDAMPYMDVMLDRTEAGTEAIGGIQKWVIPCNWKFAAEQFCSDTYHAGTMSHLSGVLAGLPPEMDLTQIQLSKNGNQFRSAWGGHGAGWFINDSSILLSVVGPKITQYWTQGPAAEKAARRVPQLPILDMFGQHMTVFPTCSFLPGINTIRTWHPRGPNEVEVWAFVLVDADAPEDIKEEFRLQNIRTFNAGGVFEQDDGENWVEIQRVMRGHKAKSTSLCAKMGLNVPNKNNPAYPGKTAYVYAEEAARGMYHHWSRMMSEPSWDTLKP
T3 sequence (Q46373 whole entry partner): as the sequence (Q46373 whole entry partner) above
The assay can be described thus: O2 consumption, Clark-type oxygen electrode. Conditions: read-out: 2,2′-Dichlorobiphenyl / Km /; apparent; air-saturated 50 mM MES pH 6.0; NADH 123 µM; BphG B356 and BphF LB400 as electron transfer partners; Fe(II) added; partly uncoupled.

The target in assay [4] is T1, BPDOB356 (biphenyl dioxygenase, oxygenase component BphAE). In words: O2 consumption, Clark-type oxygen electrode. Conditions: apparent; air-saturated 50 mM MES pH 6.0; NADH 123 µM; BphG B356 and BphF LB400 as electron transfer partners; Fe(II) added; partly uncoupled; read-out: 2,2′-Dichlorobiphenyl / Km /. Format: biochemical. An excerpt:
O2 consumption, Clark-type oxygen electrode on BPDOB356 (biphenyl dioxygenase, oxygenase component BphAE)

SMILES strings stand for the structures.

T1 sequence (Q46372 whole entry): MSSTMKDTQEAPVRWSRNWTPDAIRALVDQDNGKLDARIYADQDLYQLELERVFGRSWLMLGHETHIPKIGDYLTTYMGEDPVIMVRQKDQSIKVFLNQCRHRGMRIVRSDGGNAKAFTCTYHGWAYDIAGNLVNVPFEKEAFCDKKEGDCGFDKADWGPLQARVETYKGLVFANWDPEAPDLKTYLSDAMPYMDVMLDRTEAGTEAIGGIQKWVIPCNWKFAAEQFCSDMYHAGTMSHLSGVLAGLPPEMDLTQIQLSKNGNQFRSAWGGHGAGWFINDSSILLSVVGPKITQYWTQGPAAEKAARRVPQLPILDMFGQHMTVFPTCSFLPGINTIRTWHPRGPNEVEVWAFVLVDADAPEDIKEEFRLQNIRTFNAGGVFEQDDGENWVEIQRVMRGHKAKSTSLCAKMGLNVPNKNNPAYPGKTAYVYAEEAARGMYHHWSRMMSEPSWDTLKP
T1 sequence (Q46373 whole entry partner): as the sequence (Q46373 whole entry partner) above

As to `c1ccc(-c2ccccc2)cc1` [biphenyl], in assay [1], the “X-ray crystal structure of complex, 1.6 Å” value is 3GZY (BPDOB356) and 3GZX (BPDOB356•biphenyl complex).
`Clc1ccccc1-c1ccccc1Cl` [2,2′-dichlorobiphenyl]: the values for the Km in assay [2], in assay [3] and in assay [4] were 5.7 µM, 6.4 µM and 1.1 µM, respectively.
